Like-named read-outs stand apart in the source and are kept apart here.
Key:
PARP1 protein = PARP1 protein level by Western blot; assay type: cell-based, human; settings: HCC1937 cells irrespective of BRCA1 status, 4 h treatment
Experimental: For subcellular fractionation, cells were trypsinized and washed with cold PBS solution twice. […] Following centrifugation at 1,000 g for 5 min, the supernatant was collected (i.e., cytoplasmic fraction) and pellets were washed with the same buffer twice. The washed samples were extracted for 40 min on ice with fractionation buffer containing 0.5% NP-40 for nuclear fraction. All the samples were sonicated and clarified by centrifugation at 16,000 g for 15 min. Protein concentrations of all fractions were determined with Bio-Rad Protein Assay (Bio-Rad Laboratories, Hercules, Calif.). Immunoblotting was performed as described previously (21,22). Briefly, equal amounts of boiled protein samples were subjected to SDS-polyacrylamide gel electrophoresis (PAGE) and transferred onto nitrocellulose membranes (Bio-Rad Laboratories). Membranes were blocked for 1 hour in 3% BSA in Tris buffered saline containing 0.05% Tween 20 (TBST) and incubated for 1 hour with primary antibody (1:500 or 1:1000) diluted in TBST containing 1% BSA. After two washes with TBST, membranes were incubated for 1 hour with horseradish peroxidase-conjugated secondary Abs (1:3000 dilution) at room temperature. The immunoblots were visualized on film with the West-Q chemi-luminescence kit (GenDEPOT, Barker, Tex.).

UWB1.289 = experiment: Cytotoxicity, UWB1.289 cells; assay type: cell-based, human; settings: read-out: IC50, mean ± SEM
Experimental: (§1) All cell lines were acquired from the American Type Culture Collection (Manassas, Va., USA). Cells were maintained in RPMI 1640 medium (Mediatech) with 10% fetal bovine serum, 2 mM glutamine, and 100 U of penicillin and 100 μg of streptomycin per ml of medium (Sigma) at 37° C. in 5% CO2. To isolate HCC1437+BRCA1 cells, parental HCC1937 cells were transfected with pcDNA3.1 plasmid expressing full-length BRCA1 cDNA. Stable transfectant clones were selected and used for drug sensitivity assays. For stable transfection, cells at 30-40% confluence were incubated overnight with […] of plasmid DNA, using FUGENE® 6 transfectin reagent (Roche Molecular Biochemical, Monza, Italy) according to the manufacturer's instructions. Cells were then selected in puromycin (1 μg/ml) (Invitrogen life Technologies, La Jolla, Calif., USA.) After 20 to 30 days, viable puromycin-resistant colonies from HCC1937 transfections were expanded and screened. The clones that stably expressed […] and retained growth potential were assayed for BRCA1 expression by Western blot analysis. By Western blot analysis, we evaluated the restoration of BRCA1 expression in the puromycin-resistant cDNA/transfectant cells.
(§2) The MTT cytotoxicity assay was performed by incubating with MTT and monitoring the MTT formazan formed by viable cells with a microplate reader at a wavelength of 560 nm; the survival, ratio was determined using the formula: (Atest−Ablank)/(Acontrol−Ablank)×100%. The cytotoxicity was determined in 96-well plates using the semiautomatic fluorescence-based Digital Imaging Microscopy System (DIMSCAN). DIMSCAN uses digital imaging microscopy to quantify viable cells, which selectively accumulate FDA (fluorescein diacetate; Alfa Aesar, Ward Hill, Mass.). DIMSCAN is capable of measuring cytotoxicity over a 4 log dynamic range by quantifying total fluorescence per well (which is proportional to the number of viable cells) after elimination of the background fluorescence by digital thresholding and eosin Y (Mallinckrodt Baker, Center Valley, Pa.) quenching. Cells were seeded into 96-well plates in 100 μL of complete medium at 2,000 to 5,000 cells per well depending on cell line growth rate. After overnight incubation, test compound was added to each well at various concentrations in 50 μL of culture medium. […] Total fluorescence per well was then measured using DIMSCAN, and the results were expressed as the ratio of the fluorescence in treated wells to the fluorescence in untreated wells (survival fraction).

MDA-MB-231 = experiment: Cytotoxicity, MDA-MB-231 cells; assay type: cell-based, human
Experimental: as §1
(§3) The MTT cytotoxicity assay was performed by incubating with MTT and monitoring the MTT formazan formed by viable cells with a microplate reader at a wavelength of 560 nm; the survival, ratio was determined using the formula: (Atest−Ablank)/(Acontrol−Ablank)×100%. The cytotoxicity was determined in 96-well plates using the semiautomatic fluorescence-based Digital Imaging Microscopy System (DIMSCAN). DIMSCAN uses digital imaging microscopy to quantify viable cells, which selectively accumulate FDA (fluorescein diacetate; Alfa Aesar, Ward Hill, Mass.). DIMSCAN is capable of measuring cytotoxicity over a 4 log dynamic range by quantifying total fluorescence per well (which is proportional to the number of viable cells) after elimination of the background fluorescence by digital thresholding and eosin Y (Mallinckrodt Baker, Center Valley, Pa.) quenching. Cells were seeded into 96-well plates in 100 μL of complete medium at 2,000 to 5,000 cells per well depending on cell line growth rate. After overnight incubation, test compound was added to each well at various concentrations in 50 μL of culture medium. After incubation with the drugs for 96 hours at 37° C., FDA (final concentration: […]) and eosin Y [final concentration: 0.1% (w/v)] were added to each well and the cells were incubated for an additional 20 minutes at 37° C. Total fluorescence per well was then measured using DIMSCAN, and the results were expressed as the ratio of the fluorescence in treated wells to the fluorescence in untreated wells (survival fraction).

KB-7D = experiment: Cytotoxicity, KB-7D cells; assay type: cell-based, human; settings: cisplatin-resistant, read-out: IC50, mean ± SEM
Experimental: as §1, §3

OV90 = experiment: Cytotoxicity (MTT/DIMSCAN), OV90 cells; assay type: cell-based, human; settings: read-out: IC50, mean ± SEM
Experimental: as §1, §2

HCC1937 = experiment: Cytotoxicity, HCC1937 cells; assay type: cell-based, human
Experimental: as §1
(§4) The MTT cytotoxicity assay was performed by incubating with MTT and monitoring the MTT formazan formed by viable cells with a microplate reader at a wavelength of 560 nm; the survival, ratio was determined using the formula: (Atest−Ablank)/(Acontrol−Ablank)×100%. The cytotoxicity was determined in 96-well plates using the semiautomatic fluorescence-based Digital Imaging Microscopy System (DIMSCAN). DIMSCAN uses digital imaging microscopy to quantify viable cells, which selectively accumulate FDA (fluorescein diacetate; Alfa Aesar, Ward Hill, Mass.). DIMSCAN is capable of measuring cytotoxicity over a 4 log dynamic range by quantifying total fluorescence per well (which is proportional to the number of viable cells) after elimination of the background fluorescence by digital thresholding and eosin Y (Mallinckrodt Baker, Center Valley, Pa.) quenching. […]

OVCAR-3 = experiment: Cytotoxicity, OVCAR-3 cells; assay type: cell-based, human; settings: read-out: IC50, mean ± SEM
Experimental: as §1, §3

OVCAR-4 = experiment: Cytotoxicity, OVCAR-4 cells; assay type: cell-based, human; settings: read-out: IC50, mean ± SEM
Experimental: as §1, §3

A2780-DDDP = experiment: Cytotoxicity, A2780-DDDP cells; assay type: cell-based, human; settings: cisplatin-resistant ovarian cells, read-out: IC50, mean ± SEM
Experimental: as §1, §3

MCF-7 = experiment: Cytotoxicity, MCF-7 cells; assay type: cell-based, human
Experimental: as §1, §4

HCC1937 + BRCA1 = experiment: Cytotoxicity, HCC1937+BRCA1 cells; assay type: cell-based, human
Experimental: as §1, §4

KB-Gem = experiment: Cytotoxicity, KB-Gem cells; assay type: cell-based, human; settings: gemcitabine-resistant, read-out: IC50, mean ± SEM
Experimental: as §1, §3

TOV112D = experiment: Cytotoxicity, TOV112D cells; assay type: cell-based, human; settings: read-out: IC50, mean ± SEM
Experimental: as §1, §3

UWB1.289 + BRCA1 = experiment: Cytotoxicity, UWB1.289+BRCA1 cells; assay type: cell-based, human; settings: read-out: IC50, mean ± SEM
Experimental: as §1, §2

A2780 = experiment: Cytotoxicity, A2780 cells; assay type: cell-based, human; settings: A2780, cisplatin-sensitive ovarian cells, read-out: IC50, mean ± SEM
Experimental: as §1, §3

SKBR3 = experiment: Cytotoxicity, SKBR3 cells; assay type: cell-based, human
Experimental: as §1, §4

zebrafish embryos = experiment: Zebrafish genotoxicity assay; assay type: in vivo, Danio rerio; settings: wild-type zebrafish embryos, HU 0-50 mM
Experimental: Zebrafish (Danio rerio) were obtained from zebrafish Core facility of Taipei Medical University and maintained at 28° C. on a 14 h light/10 h dark cycle. Embryos were incubated at 28° C. and different developmental stages were determined as described (25). Wild-type embryos were treated with different concentrations of HU (0, 5, […], 20, 50 mM) or COH29 (0, 10, 20, 50, 100 μM) at 20 hpf to evaluate the mutagenic effect. Fifteen embryos were treated per well condition. […] Embryos were observed using an Olympus IX70-FLA inverted fluorescence microscope. Images were taken using SPOT digital camera system (Diagnostic Instruments, Sterling Heights, Mich., USA) and assembled with ImageJ software (26).

[1] = Homo sapiens, UWB1289, UWB1.289
[2] = Homo sapiens, MDA-MB-231, TNBC, read-out: IC50, mean ± SEM
[3] = Homo sapiens, UWB1289, UWB1.289 + BRCA1

For `C[C@]1(c2nc3c(C(N)=O)cccc3[nH]2)CCCN1` [ABT-888], the “effect on PARP1 protein level” value (PARP1 protein) was “significant reduction of PARP1”.

`N.N.[Cl][Pt][Cl]` [Cisplatin] was tested, and the IC50 (UWB1.289; UWB1.289, BRCA1-defective ovarian cancer cells, COH29 72 h) was 1430 ± 870 nM, the IC50 (MDA-MB-231; MDA-MB-231, TNBC, read-out: IC50, mean ± SEM) was 3740 ± 210 nM and the IC50 (KB-7D) was 7500 ± 300 nM. For the same compound, the IC50 (OV90; OV90, wild-type BRCA1 ovarian cancer cells, COH29 72 h) was 1570 ± 290 nM, the IC50 (HCC1937; HCC1937, triple negative, BRCA1 mutant, COH29 72 h) was 2460 ± 110 nM and the IC50 (OVCAR-3) was 1640 ± 40 nM. For the same compound, the IC50 (OVCAR-4) was 2250 ± 250 nM, the IC50 (A2780-DDDP) was 5020 ± 1180 nM and the IC50 (MCF-7; MCF-7, ER+ PR(+)) was 12100 ± 1020 nM. The IC50 (HCC1937 + BRCA1; HCC1937 + BRCA1, triple negative, COH29 72 h) was 2930 ± 550 nM, the IC50 (KB-Gem) was 380 ± 30 nM and the IC50 (TOV112D) was 1320 ± 200 nM. For the same compound, the IC50 (UWB1.289 + BRCA1; UWB1.289 + BRCA1 (WT), COH29 72 h) was 7400 ± 2020 nM, the IC50 (A2780) was 690 nM and the IC50 (SKBR3; SKBR3, ER− PR(−) HER2+) was 990 ± 240 nM.

For `Nc1ccn([C@@H]2O[C@H](CO)[C@@H](O)C2(F)F)c(=O)n1` [Gemcitabine], the IC50 (UWB1.289; [1]) was 56.48 ± 0.32 nM, the IC50 (MDA-MB-231; [2]) was 17 ± 1.33 nM and the IC50 (KB-7D; Homo sapiens, KB7D) was 0.69 ± 0.02 nM. It also gave an IC50 (OV90; Homo sapiens, OV-90, OV90) of 78.3 ± 11.6 nM, an IC50 (OVCAR-3; Homo sapiens) of 118 nM and an IC50 (OVCAR-4; Homo sapiens) of 55.1 ± 3.55 nM. It also gave an IC50 (A2780-DDDP; Homo sapiens) of 36.3 ± 0.79 nM, an IC50 (KB-Gem; Homo sapiens) of 60 ± 10 nM and an IC50 (TOV112D; Homo sapiens) of 28.4 ± 4.18 nM. For the same compound, the IC50 (UWB1.289 + BRCA1; [3]) was 42.2 ± 0.62 nM and the IC50 (A2780; Homo sapiens) was 25.5 ± 1.66 nM.

In the case of `NC(=O)NO` [HU, hydroxyurea], the developmental defects (zebrafish embryos; COH29 0-100 μM) is reported as “caused defects in eyes and heart by 4 dpf” and the “number of mutant embryos” value (zebrafish embryos) is reported as “dose-dependent increase in the number of mutant embryos”.

For `CC(=O)O[C@H]1C(=O)[C@@]2(C)[C@H]([C@H](OC(=O)c3ccccc3)[C@]3(O)C[C@H](OC(=O)[C@H](O)[C@@H](NC(=O)c4ccccc4)c4ccccc4)C(C)=C1C3(C)C)[C@]1(OC(C)=O)CO[C@@H]1C[C@@H]2O` [Paclitaxel], the IC50 (UWB1.289; [1]) was 13.9 ± 0.7 nM, the IC50 (MDA-MB-231; [2]) was 2.01 ± 0.57 nM and the IC50 (MDA-MB-231; Homo sapiens, MDA-MB-231, Table 3 paclitaxel column, read-out: IC50) was 2.01 ± 0.57 nM. For the same compound, the IC50 (KB-7D; Homo sapiens, KB7D) was 5.17 ± 0.17 nM, the IC50 (OV90; Homo sapiens, OV-90, OV90) was 9.09 ± 0.41 nM and the IC50 (HCC1937; Homo sapiens, HCC1937, Table 3 paclitaxel column) was 4.04 ± 0.44 nM. It also gave an IC50 (OVCAR-3; Homo sapiens) of 2.89 ± 0.07 nM, an IC50 (OVCAR-4; Homo sapiens) of 5.55 ± 0.05 nM and an IC50 (A2780-DDDP; Homo sapiens) of 11.4 ± 1.49 nM. The IC50 (MCF-7; Homo sapiens, MCF7, MCF-7, Table 3 paclitaxel column) was 6.36 ± 1.11 nM, the IC50 (HCC1937 + BRCA1; Homo sapiens, HCC1937 + BRCA1, Table 3 paclitaxel column) was 5.4 ± 0.07 nM and the IC50 (KB-Gem; Homo sapiens) was 1.95 ± 0.15 nM. The IC50 (TOV112D; Homo sapiens) was 6.45 ± 1.05 nM, the IC50 (UWB1.289 + BRCA1; [3]) was 13 ± 1.62 nM and the IC50 (A2780; Homo sapiens) was 3.6 ± 1.67 nM. The IC50 (SKBR3; Homo sapiens, SK-BR-3, SKBR3, Table 3 paclitaxel column) was 3.37 ± 0.08 nM.
